Experimental data published in patent US10258634B2, “Ciclesonide for the treatment of airway disease in horses” (Boehringer Ingelheim Vetmedica GmbH, priority 2012, dated 2019).

Assays:
in vivo = details: horse, concentration of C21-C21-desisobutyrylciclesonide in plasma
RAO horses [1] = experiment: Budesonide study: moldy hay challenge, lung function variables and clinical score; type: in vivo
From the text: Nozzle A and a […]® inhaler device not available commercially is used in the study.

RAO horses [2] = experiment: 1st ciclesonide study: moldy hay challenge, lung function variables and breathing effort score; type: in vivo; details: dexamethasone 0.066 mg/kg per os once daily; after 14 days; p<0.0001
RAO horses [3] = experiment: 2nd ciclesonide study: moldy hay challenge, lung function variables and weighted clinical score; type: in vivo; details: dexamethasone 0.066 mg/kg per os once daily; after 14 days
From the text: (§1) The commercially available […]® is used in the study.

RAO horses [4] = experiment: 2nd ciclesonide study: moldy hay challenge, serum cortisol; type: in vivo; details: dexamethasone 0.066 mg/kg per os once daily; days 3, 5, 7, 10, 14 and 17; p<0.0001
From the text: as §1

RAO horses [5] = experiment: 1st ciclesonide study: moldy hay challenge, serum cortisol; type: in vivo; details: dexamethasone 0.066 mg/kg per os once daily; days 3, 5, 7, 10, 14 and 17; p<0.0001
RAO horses [6] = experiment: Segmented neutrophil and lymphocyte counts in the 1st and 2nd ciclesonide studies; type: in vivo; details: for lymphocytes count / segmented neutrophil count: after administration of dexamethasone 0.066 mg/kg per os; for Lymphocytes / Segmented neutrophils: dexamethasone 0.066 mg/kg per os once daily 14 days, mean, n=8
Procedure: as §1
The segmented neutrophil counts and the lymphocyte counts are determined in the studies above: ciclesonide treatment versus dexamethasone treatment.
Concentration of segmented neutrophils and lymphocytes on day (D): D0, D14 and D21 in the treatment groups of dexamethasone and different doses of ciclesonide (n=8) (mean (SEM)

[7] = taken orally; cited from earlier work

Structure (SMILES): C[C@]12C=CC(=O)C=C1CC[C@@H]1[C@@H]2[C@@H](O)C[C@@]2(C)[C@H]1C[C@H]1O[C@@H](C3CCCCC3)O[C@]12C(=O)CO [C21-C21-desisobutyrylciclesonide]
- concentration at 4 h (in vivo): < 0.25 nM

Structure (SMILES): CCCC1O[C@@H]2C[C@H]3[C@@H]4CCC5=CC(=O)C=C[C@]5(C)[C@H]4[C@@H](O)C[C@]3(C)[C@]2(C(=O)CO)O1 (stereo partly drawn) [budesonide]
- clinical score (breathing effort score) compared to pretreatment values (RAO horses [1]; all three budesonide doses (450/900/1800 μg/horse twice daily), after 7 and 14 days, p=0.002 to p<0.0001): significantly reduced
- all lung function variables (transpulmonary pressure, lung resistance, lung elastance) compared to pretreatment values (RAO horses [1]; budesonide 1800 μg/horse ex RESPIMAT twice daily per inhalation, after 14 days, p≤0.0001): significantly reduced
- lung function variables, difference to dexamethasone group (RAO horses [1]; budesonide 1800 μg/horse ex RESPIMAT twice daily, after 7 or 14 days): no significant difference
- clinical score, difference to dexamethasone group (RAO horses [1]; budesonide 900 and 1800 μg/horse ex RESPIMAT twice daily, after 7 and 14 days): no significant difference

Structure (SMILES): C[C@@H]1C[C@H]2[C@@H]3CCC4=CC(=O)C=C[C@]4(C)[C@@]3(F)[C@@H](O)C[C@]2(C)[C@@]1(O)C(=O)CO [dexamethasone]
- all lung function variables (ΔPL, RL, EL) compared to pretreatment values (RAO horses [2]): significantly reduced
- all lung function variables (ΔPL, RL, EL) compared to pretreatment values (RAO horses [3]): significantly reduced
- weighted clinical score compared to pretreatment values (RAO horses [3]): significantly reduced
- serum cortisol levels (RAO horses [4]): significantly reduced
- serum cortisol levels in comparison to any of the ciclesonide treatment groups (RAO horses [4]): significantly reduced
- serum cortisol levels compared to pretreatment values (RAO horses [5]): significantly reduced
- serum cortisol levels in comparison to any of the ciclesonide treatment groups (RAO horses [5]): significantly reduced
- clinical score (breathing effort score) compared to pretreatment values (RAO horses [1]; dexamethasone 0.066 mg/kg per os once daily, after 7 and 14 days): significantly reduced
- all lung function variables compared to pretreatment values (RAO horses [1]; dexamethasone 0.066 mg/kg per os once daily, after 14 days, p≤0.0001): significantly reduced
- lymphocytes count (RAO horses [6]; 1st ciclesonide study): decreased
- segmented neutrophil count (RAO horses [6]; 1st ciclesonide study): increased
- lymphocytes count (RAO horses [6]; 2nd ciclesonide study): decreased
- segmented neutrophil count (RAO horses [6]; 2nd ciclesonide study): increased
- neutrophilia and lymphopenia (RAO horses [6]; after treatment with dexamethasone (1st and 2nd ciclesonide study)): Neutrophilia and lymphopenia is observed
- Lymphocytes (RAO horses [6]; 1st ciclesonide study, D 0): 2.1e+09 L⁻¹
- Segmented neutrophils (RAO horses [6]; 1st ciclesonide study, D 0): 4.77e+09 L⁻¹
- Lymphocytes (RAO horses [6]; 1st ciclesonide study, D 14): 1.71e+09 L⁻¹
- Segmented neutrophils (RAO horses [6]; 1st ciclesonide study, D 14): 6.16e+09 L⁻¹
- Lymphocytes (RAO horses [6]; 1st ciclesonide study, D 21): 1.76e+09 L⁻¹
- Segmented neutrophils (RAO horses [6]; 1st ciclesonide study, D 21): 4.27e+09 L⁻¹
- Lymphocytes (RAO horses [6]; 2nd ciclesonide study, D 0): 2.14e+09 L⁻¹
- Segmented neutrophils (RAO horses [6]; 2nd ciclesonide study, D 0): 4.82e+09 L⁻¹
- Lymphocytes (RAO horses [6]; 2nd ciclesonide study, D 14): 1.73e+09 L⁻¹
- Segmented neutrophils (RAO horses [6]; 2nd ciclesonide study, D 14): 6.23e+09 L⁻¹
- Lymphocytes (RAO horses [6]; 2nd ciclesonide study, D 21): 1.73e+09 L⁻¹
- Segmented neutrophils (RAO horses [6]; 2nd ciclesonide study, D 21): 4.82e+09 L⁻¹
- potency relative to prednisone [7]: 7 times
- potency relative to the naturally occurring hormone cortisol [7]: 27 times
